Reference: patent US11447504B2, “Macrocyclic chlorine substituted indole derivatives” (Bayer Aktiengesellschaft, priority 2017, dated 2022)
Counter-ions that a name gives are not always drawn. Like-named read-outs stand apart in the source and are kept apart here.

How the values were obtained:
BCL-XL = BCL-XL (Homo sapiens (Human), UniProt Q07817); assay: Protein-protein interaction assay BCL-XL/Bad BH3 peptide (BCL-XL Assay, TR-FRET); format: binding; settings: read-out: BCL-XL Assay IC50 (median)
HMC-1-8 = assay: Antiproliferation assay 7, HMC-1-8; format: cell-based; settings: HMC-1-8 cells, CellTiter-Glo, read-out: Antiproli HMC-1-8 IC50 median
Summary of the method: (§1)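 Cells were exposed to compound for 72 hours at 37° C. Viability was measured by CellTiter-Glo luminescence. A day 0 plate read at the start served as the time-zero reference.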

BCL-2 = BCL-2 (Homo sapiens (Human), UniProt P10415); assay: Protein-protein interaction assay BCL-2/Bad BH3 peptide (BCL-2 Assay, TR-FRET); format: binding; settings: read-out: BCL-2 Assay IC50 (median)
Summary of the method: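 His-BCL-2 pre-equilibrated with compound 10 min at 22° C., then incubated with Bad BH3 peptide 1 h at 22° C. in dark and overnight at 4° C.; TR-FRET ratio read.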

SUDHL5 [1] = assay: Antiproliferation assay 7, SUDHL5; format: cell-based; settings: SUDHL5 cells, CellTiter-Glo, read-out: Antiproli SUDHL5 IC50 (median)
Summary of the method: as §1

AMO-1 = assay: Antiproliferation assay 7, AMO-1; format: cell-based; settings: AMO-1 cells, CellTiter-Glo, read-out: Antiproli AMO-1 IC50 median
Summary of the method: as §1

SUDHL10 [2] = assay: Induction of caspase-3/7 activity (Assay 4), SUDHL10; format: cell-based; settings: SUDHL10 cells
Summary of the method: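 SUDHL10 DLBCL cells treated with compounds for 3 hours at 37 °C in a humidified incubator. Caspase-3/7 activity read with Caspase-Glo 3/7 luminescent reagent. Medium-only background subtracted from all values.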

SUDHL5 [3] = assay: Induction of cytotoxicity (Assay 6), SUDHL5
SUDHL5 [4] = assay: Induction of caspase-3/7 activity (Assay 4), SUDHL5; format: cell-based; settings: SUDHL5 cells
Summary of the method: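 DLBCL cells treated with compounds for 3 hours at 37° C. Caspase-3/7 activity measured by Caspase-Glo 3/7 luminescence, with medium-only background subtracted.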

SUDHL10 [5] = assay: Induction of cytotoxicity (Assay 6), SUDHL10
[6] = 3 hours, Caspase-Glo 3/7, read-out: Caspase SUDHL10 EC50 (median)
[7] = read-out: Cytotox SUDHL5 IC50 (median), SUDHL5 cells, 5 hours, CellTiter-Glo
[8] = 3 hours, Caspase-Glo 3/7, read-out: Caspase SUDHL5 EC50 (median)
[9] = read-out: Cytotox SUDHL10 IC50 (median), SUDHL10 cells, 5 hours, CellTiter-Glo

Chain of BCL-2 (P10415 other isoform, or with tags, fused parts or gaps): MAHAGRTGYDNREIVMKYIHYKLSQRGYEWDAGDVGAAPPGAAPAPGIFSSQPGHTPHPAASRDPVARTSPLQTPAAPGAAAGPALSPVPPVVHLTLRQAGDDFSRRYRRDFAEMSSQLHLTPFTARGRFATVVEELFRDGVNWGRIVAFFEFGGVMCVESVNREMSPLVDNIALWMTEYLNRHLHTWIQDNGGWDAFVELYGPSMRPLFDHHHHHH
Chain of BCL-XL (Q07817 other isoform, or with tags, fused parts or gaps): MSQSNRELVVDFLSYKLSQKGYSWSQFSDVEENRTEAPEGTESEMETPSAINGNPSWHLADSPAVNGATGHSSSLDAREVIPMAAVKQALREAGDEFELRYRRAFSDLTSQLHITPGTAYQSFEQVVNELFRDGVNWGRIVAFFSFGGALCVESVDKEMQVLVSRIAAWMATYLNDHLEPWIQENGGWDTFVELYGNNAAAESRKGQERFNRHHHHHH

Row | IC50 (BCL-XL) [nM] | IC50 (BCL-2) [nM] | IC50 (SUDHL5 [1]; Homo sapiens, SU-DHL-5, 72 h) [nM] | EC50 (SUDHL10 [2]; Homo sapiens, SU-DHL10, 3 h, Caspase-Glo 3/7, read-out: Caspase SUDHL10 EC50 (median)) [nM] | EC50 (SUDHL5 [4]; Homo sapiens, SU-DHL-5, 3 h, Caspase-Glo 3/7, read-out: Caspase SUDHL5 EC50 (median)) [nM] | IC50 (SUDHL5 [1]; 72 hours) [nM] | EC50 (SUDHL10 [2]; [6]) [nM] | EC50 (SUDHL5 [4]; [8]) [nM] | Compound | IC50 (HMC-1-8; 72 h) [nM] | IC50 (AMO-1; Homo sapiens, AMO1, 72 h) [nM] | IC50 (SUDHL5 [3]; Homo sapiens, SU-DHL-5, 5 h, read-out: Cytotox SUDHL5 IC50 (median), SUDHL5 cells, 5 hours, CellTiter-Glo) [nM] | IC50 (SUDHL10 [5]; Homo sapiens, SU-DHL10, 5 h, read-out: Cytotox SUDHL10 IC50 (median), SUDHL10 cells, 5 hours, CellTiter-Glo) [nM] | IC50 (HMC-1-8; 72 hours) [nM] | IC50 (AMO-1; 72 hours) [nM] | IC50 (SUDHL5 [3]; [7]) [nM] | IC50 (SUDHL10 [5]; [9]) [nM]
1 | > 20000 | > 20000 | 2000 | 1800 | 690 |  |  |  | Cc1c2c(nn1C)N(C)CCCCCn1c(C(=O)O)c(CCCOc3cccc4ccccc34)c3ccc(Cl)c-2c31 (racemic) [Example 71, (rac)-4-chloro-2,3,15-trimethyl-7-{3-[(naphthalen-1-yl)oxy]propyl}-10,11,12,13,14,15-hexahydro-2H-pyrazolo[4′,3′:4,5][1,6]diazacycloundecino[3,2,1-hi]indole-8-carboxylic acid] | 22000 | 5000 | 690 | 2700 |  |  |  | 
2 | > 20000 | 19000 |  |  |  | 810 | 1000 | 710 | Cc1c2c(nn1C)N(C)CCCCCn1c(C(=O)O)c(CCCOc3cccc4cc(F)ccc34)c3ccc(Cl)c-2c31 (racemic) [Example 74, (rac)-4-chloro-7-{3-[(6-fluoronaphthalen-1-yl)oxy]propyl}-2,3,15-trimethyl-10,11,12,13,14,15-hexahydro-2H-pyrazolo[4′,3′:4,5][1,6]diazacycloundecino[3,2,1-hi]indole-8-carboxylic acid] |  |  |  |  | 5400 | 1100 | 1000 | 1300
3 | > 20000 | > 20000 | 2300 |  |  |  | 320 | 400 | CCc1c2c(nn1C)N(C)CCCCCn1c(C(=O)O)c(CCCOc3cccc4cc(F)ccc34)c3ccc(Cl)c-2c31 (single isomer, unassigned; enantiomer 1) [Example 78, 4-chloro-3-ethyl-7-{3-[(6-fluoronaphthalen-1-yl)oxy]propyl}-2,15-dimethyl-10,11,12,13,14,15-hexahydro-2H-pyrazolo[4′,3′:4,5][1,6]diazacycloundecino[3,2,1-hi]indole-8-carboxylic acid-N-ethylethanamine Salt—Enantiomer 1] |  |  |  |  | 2400 | 770 | 310 | 700
4 | > 20000 | 19000 |  |  |  | 520 | 740 | 330 | Cc1c2c(nn1C)N(C)CCCCCn1c(C(=O)O)c(CCCOc3cccc4cc(F)ccc34)c3ccc(Cl)c-2c31 [Example 75, (+)-4-chloro-7-{3-[(6-fluoronaphthalen-1-yl)oxy]propyl}-2,3,15-trimethyl-10,11,12,13,14,15-hexahydro-2H-pyrazolo[4′,3′:4,5][1,6]diazacycloundecino[3,2,1-hi]indole-8-carboxylic acid-N-ethylethanamine salt] |  |  |  |  | 3400 | 1100 | 380 | 810
